Measurements reported in patent US20230233696A1, “TRIANTENNARY N-ACETYLGALACTOSAMINE MODIFIED HYDROXYL POLYAMIDOAMINE DENDRIMERS AND METHODS OF USE THEREOF” (Ashvattha Therapeutics, Inc., priority 2019, published 2023).
Blank lines part the entries; values can stand above or below the compound they belong to.

Key:
[1] = molecular target: CSF1R (Homo sapiens, UniProt P07333); test: binding affinity towards CSF1R
[2] = test system: NASH mice; test: in vivo efficacy in STAM mouse model of non-alcoholic steatohepatitis; parameters: species or system C57BL/6 mice
Description: Pathogen-free 14 day-pregnant C57BL/6 mice were obtained from Japan SLC, Inc.(Japan); NASH was established in male mice by a single subcutaneous injection of 200 μg streptozotocin (STZ, Sigma, USA) 2 days after birth and feeding with a high fat diet (CLEA Japan Inc., Japan) ad libitum after 4 weeks of age (day 28 ± 2). NASH mice were randomized into 8 groups of 8 mice and 2 groups of 4 mice at 6 weeks of age (day 42 ± 2) the day before the start of treatment based on their body weight. Littermate control mice without STZ priming (n=8) were fed with normal diet ad libitum and set up for control purpose (see below for details on grouping). […] Samples would not be collected from euthanized animals. Individual body weight was measured daily during the treatment period. […] Four NASH mice were intraperitoneally administered vehicle supplemented with D-Cy5 at a dose of 50 mg/kg single shot at 6 weeks of age; • Group 11 (D-Cy5-9 wks): Four NASH mice were intraperitoneally administered vehicle supplemented with D-Cy5 at a dose of 50 mg/kg single shot at 9 weeks of age. Mice in group 10 and 11 were sacrificed at 6 and 9 weeks of age 48 hours after the administration. Mice in group 1 - 9 were sacrificed at 9 weeks of age for the following assay, group 10 and 11 were sacrificed at 6 and 9 weeks of age for the following assays. Individual liver weight were measured and liver-to-body weight ratio were calculated. Non-fasting serum ALT levels were quantified by FUJI DRI CHEM (Fujifilm, Japan). Liver triglyceride levels were quantified by Triglyceride E-test kit (FUJIFUILM Wako Pure Chemical Corporation, Japan). HE staining and estimation of NAFLD Activity score was carried out using routine methods. Sirius-red staining and estimation of the percentage of fibrosis area was also calculated. After completion of the in-life portion of the study, the following samples were collected for further analyses or shipping. […] Dissect the animal and collect the tissue samples (right and left kidneys, liver) in sequential order. Sample thickness was less than approximately 5 mm to ensure proper fixation, with a flat surface across the area of interest. Put the samples into 4% NBF for fixation immediately. Fix the samples in 4% NBF overnight at room temperature.

[3] = water solubility of dendrimer conjugates
[4] = in vitro drug release under plasma (pH7.4, PBS) and intracellular conditions (pH5.5, esterase); type: in vitro ADME; conditions: intracellular conditions (pH5.5, esterase), 18 days
Description: The drug release profile of both the conjugates was evaluated under plasma (pH7.4, PBS) and intracellular conditions (pH5.5, esterase).

[5] = molecular target: T1, human angiotensin II AT1 receptor (Homo sapiens, UniProt P30556); test: human angiotensin II AT1 receptor (antagonist radioligand) binding assay; conditions: [125I][Sar1-Ile8] angiotensin-II radioligand, cell membrane homogenates
T1 sequence (P30556 1-359): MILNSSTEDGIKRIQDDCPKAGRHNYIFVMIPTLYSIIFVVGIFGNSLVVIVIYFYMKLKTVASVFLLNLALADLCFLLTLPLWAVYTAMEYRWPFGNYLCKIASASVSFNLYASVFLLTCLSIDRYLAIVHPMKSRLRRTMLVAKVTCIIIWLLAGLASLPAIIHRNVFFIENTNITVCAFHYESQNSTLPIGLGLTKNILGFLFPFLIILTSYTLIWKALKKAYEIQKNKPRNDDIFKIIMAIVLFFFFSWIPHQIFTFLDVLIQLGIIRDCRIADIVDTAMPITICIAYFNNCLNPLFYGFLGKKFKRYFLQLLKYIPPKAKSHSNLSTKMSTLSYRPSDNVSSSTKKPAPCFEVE
Description: Cell membrane homogenates (8 µg protein) are incubated for 120 min at 37° C. with 0.05 nM [125I][Sar1-Ile8] angiotensin-II in the absence or presence of the test compounds in a buffer containing 50 mM Tris-HCl (pH 7.4), 5 mM MgCl2, 1 mM EDTA and 0.1% BSA. Nonspecific binding is determined in the presence of 10 µM angiotensin II. Following incubation, the samples solution are filtered rapidly under vacuum through glass fiber filters (GF/B, Packard) presoaked with 0.3% PEI and rinsed several times with ice-cold 50 mM Tris-HCl using a 96-sample cell harvester (Unifilter, Packard). The filters are dried then counted for radioactivity in a scintillation counter (Topcount, Packard) using a scintillation cocktail (Microscint 0, Packard).
The results are expressed as a percent inhibition of the control radioligand specific binding. Saralasin is used as the standard reference compound, which is tested in each experiment at several concentrations to obtain a competition curve from which its IC50 is calculated.

[6] = NASH mice, significantly compared to free OCA and vehicle control (p < 0.05, n=8)

Sequence of CSF1R (P07333 20-972, species assumed): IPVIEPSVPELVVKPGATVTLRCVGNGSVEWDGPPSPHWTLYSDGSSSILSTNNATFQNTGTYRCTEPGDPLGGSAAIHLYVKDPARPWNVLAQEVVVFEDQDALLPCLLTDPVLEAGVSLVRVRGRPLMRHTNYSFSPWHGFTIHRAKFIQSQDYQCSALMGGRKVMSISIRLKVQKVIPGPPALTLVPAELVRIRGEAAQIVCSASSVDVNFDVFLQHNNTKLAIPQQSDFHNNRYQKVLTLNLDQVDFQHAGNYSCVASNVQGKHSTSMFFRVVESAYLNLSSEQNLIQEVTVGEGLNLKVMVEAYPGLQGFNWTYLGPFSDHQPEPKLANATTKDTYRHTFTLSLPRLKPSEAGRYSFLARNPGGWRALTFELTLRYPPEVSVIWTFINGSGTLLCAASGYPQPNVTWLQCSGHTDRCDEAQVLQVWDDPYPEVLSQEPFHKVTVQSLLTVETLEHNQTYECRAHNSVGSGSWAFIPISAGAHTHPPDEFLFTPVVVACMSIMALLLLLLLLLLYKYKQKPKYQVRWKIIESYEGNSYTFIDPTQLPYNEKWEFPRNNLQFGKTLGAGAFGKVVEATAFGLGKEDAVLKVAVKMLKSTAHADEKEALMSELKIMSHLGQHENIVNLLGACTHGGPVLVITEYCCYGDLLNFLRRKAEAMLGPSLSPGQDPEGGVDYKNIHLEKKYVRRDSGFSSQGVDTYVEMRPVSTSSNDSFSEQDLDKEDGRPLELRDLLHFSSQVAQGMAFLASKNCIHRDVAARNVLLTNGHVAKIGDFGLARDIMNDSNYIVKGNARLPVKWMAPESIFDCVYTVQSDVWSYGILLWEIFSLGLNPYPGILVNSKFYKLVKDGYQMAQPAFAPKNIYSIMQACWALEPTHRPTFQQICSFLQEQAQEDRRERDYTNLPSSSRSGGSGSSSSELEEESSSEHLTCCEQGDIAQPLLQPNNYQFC

Kd [1]: ~13 nM
Compound: Cc1ccc(NC(=O)c2ccc(CN3CCN(CCOCCOCCOCCN=[N+]=[N-])CC3)c(C(F)(F)F)c2)cc1NC(=O)c1cccc(-c2cnn(C)c2)c1 [CSF1R-E analogue 1]

Compound: CCCc1nc2c(C)cc(-c3nc4ccccc4n3C)cc2n1Cc1ccc(-c2ccccc2C(=O)O)cc1 [Telmisartan, reference compound]
liver weight ([2]; NASH mice at nine weeks of age, compared to vehicle-treated NASH mice): reduce liver weight

Compound: dendrimer-GalNAc (4-5)-telmisartan amide (6-7) [D-Tel]
water solubility [3]: 60 to 70 mg/mL
drug release [4]: less than 10%

Compound: dendrimer-GalNAc(4-5)-Obeticholic acid conjugate (6-7) [D-OCA]
liver function (biochemical analysis) ([2]; NASH mice): improved liver function
NAFLD score [2, 6]: decreases
hepatocyte ballooning [2, 6]: decreases
liver fibrosis [2, 6]: decreases
fibrosis score ([2]; high dose D-OCA (315 mg/kg i.p. every other day), compared to free OCA group): improved reduction
stenosis score ([2]; low dose D-OCA (63 mg/kg i.p. every other day)): significant reduction

Compound: dendrimer-triantennary GalNAc(4-5)-telmisartan (7-8) [D-TelB]
drug release [4]: 94%

Compound: telmisartan-PEG3-amide azide [Telmisartan amide linker]
Kd [5]: 74.2 nM

Compound: telmisartan-ester-PEG4 azide [Telmisartan ester linker]
Kd [5]: 28.5 nM
